Measured values published in patent US20090311217A1, “3-SUBSTITUTED-1H-INDOLE COMPOUNDS, THEIR USE AS MTOR KINASE AND PI3 KINASE INHIBITORS, AND THEIR SYNTHESES” (priority 2008, published 2009).

Legend:
Assay type in all cases: biochemical
human TOR = biological target: T1, human TOR (Homo sapiens, UniProt P42345); experiment: mTOR enzyme assay (DELFIA, His6-S6K substrate); settings: read-out: mTOR Kinase Avg. IC50
T1 construct: FLAG

PI3K-gamma = PI3K-gamma (Homo sapiens, UniProt P48736); experiment: PI3K-gamma fluorescence polarization assay; settings: PI3Kγ Avg. IC50
Chain of PI3K-gamma (P48736 whole entry, species assumed, the tested form may be a part): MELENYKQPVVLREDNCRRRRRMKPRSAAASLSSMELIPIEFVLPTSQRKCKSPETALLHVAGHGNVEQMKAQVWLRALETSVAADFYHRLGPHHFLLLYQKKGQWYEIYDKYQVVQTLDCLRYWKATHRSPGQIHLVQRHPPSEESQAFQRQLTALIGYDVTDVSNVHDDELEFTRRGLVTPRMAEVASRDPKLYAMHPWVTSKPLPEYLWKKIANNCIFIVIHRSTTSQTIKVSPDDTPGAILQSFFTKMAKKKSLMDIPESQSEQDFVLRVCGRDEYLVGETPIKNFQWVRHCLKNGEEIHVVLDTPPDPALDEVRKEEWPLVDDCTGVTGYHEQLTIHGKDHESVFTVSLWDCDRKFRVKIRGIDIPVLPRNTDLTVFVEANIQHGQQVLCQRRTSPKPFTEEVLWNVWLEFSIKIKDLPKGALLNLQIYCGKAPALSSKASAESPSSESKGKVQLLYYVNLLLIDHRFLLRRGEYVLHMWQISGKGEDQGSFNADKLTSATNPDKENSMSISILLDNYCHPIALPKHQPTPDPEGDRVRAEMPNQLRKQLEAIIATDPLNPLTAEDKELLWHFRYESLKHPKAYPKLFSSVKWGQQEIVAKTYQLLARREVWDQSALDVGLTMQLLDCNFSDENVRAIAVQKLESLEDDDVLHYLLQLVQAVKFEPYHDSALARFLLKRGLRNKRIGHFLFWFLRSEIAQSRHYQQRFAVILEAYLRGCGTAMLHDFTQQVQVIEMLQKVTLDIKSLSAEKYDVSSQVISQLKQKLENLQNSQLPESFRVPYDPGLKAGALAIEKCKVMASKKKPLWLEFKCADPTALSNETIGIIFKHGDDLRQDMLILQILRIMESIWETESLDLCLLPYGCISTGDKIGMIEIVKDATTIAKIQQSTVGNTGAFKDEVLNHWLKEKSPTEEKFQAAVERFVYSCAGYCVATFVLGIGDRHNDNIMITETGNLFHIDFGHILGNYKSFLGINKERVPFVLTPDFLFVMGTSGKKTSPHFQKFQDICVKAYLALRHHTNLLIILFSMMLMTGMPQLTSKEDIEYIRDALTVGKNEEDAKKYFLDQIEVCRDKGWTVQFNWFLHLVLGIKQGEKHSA
Procedure, shortened: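 Reactions in 5 mM HEPES pH 7, 2.5 mM MgCl2, 25 μM ATP with 2.5 μM diC8-PI(4,5)P2 and 5 ng enzyme, 1 h at 25° C, then EDTA quench. Product detected by FP using GST-GRP1 PH domain (100 nM) and BODIPY-TMR-IP4 tracer (5 nM); final DMSO 0.8%.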

PI3K-alpha = PI3K-alpha (Homo sapiens, UniProt P42336); experiment: PI3K-alpha fluorescence polarization assay; settings: read-out: PI3Kα Avg. IC50
Chain of PI3K-alpha (P42336 whole entry, species assumed): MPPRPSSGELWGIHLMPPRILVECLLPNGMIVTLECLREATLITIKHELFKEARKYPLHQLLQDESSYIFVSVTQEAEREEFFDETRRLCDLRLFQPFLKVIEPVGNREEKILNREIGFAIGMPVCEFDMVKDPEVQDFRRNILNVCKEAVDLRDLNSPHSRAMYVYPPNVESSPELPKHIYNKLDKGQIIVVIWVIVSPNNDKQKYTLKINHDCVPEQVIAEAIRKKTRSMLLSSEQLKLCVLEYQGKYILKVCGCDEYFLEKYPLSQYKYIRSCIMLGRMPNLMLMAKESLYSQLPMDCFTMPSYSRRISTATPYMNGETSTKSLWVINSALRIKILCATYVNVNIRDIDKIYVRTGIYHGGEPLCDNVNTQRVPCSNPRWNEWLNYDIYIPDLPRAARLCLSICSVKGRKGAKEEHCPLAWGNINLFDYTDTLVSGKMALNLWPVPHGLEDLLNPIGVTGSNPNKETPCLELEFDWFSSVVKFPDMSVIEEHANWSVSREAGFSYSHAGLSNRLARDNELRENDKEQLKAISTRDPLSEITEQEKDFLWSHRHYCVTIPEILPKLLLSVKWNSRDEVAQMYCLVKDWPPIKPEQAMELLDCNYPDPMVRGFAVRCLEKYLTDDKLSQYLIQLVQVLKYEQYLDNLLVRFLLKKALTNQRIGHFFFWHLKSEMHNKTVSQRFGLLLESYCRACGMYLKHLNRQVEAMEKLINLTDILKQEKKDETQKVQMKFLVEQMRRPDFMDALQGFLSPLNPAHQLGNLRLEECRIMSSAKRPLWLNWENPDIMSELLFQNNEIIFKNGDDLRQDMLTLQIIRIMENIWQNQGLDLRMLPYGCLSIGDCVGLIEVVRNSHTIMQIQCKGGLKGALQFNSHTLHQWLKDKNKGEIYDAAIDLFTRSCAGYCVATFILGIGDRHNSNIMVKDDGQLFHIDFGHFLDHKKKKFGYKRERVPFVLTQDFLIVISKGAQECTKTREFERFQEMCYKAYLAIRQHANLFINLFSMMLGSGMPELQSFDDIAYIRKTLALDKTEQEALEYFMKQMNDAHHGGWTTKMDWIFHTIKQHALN
Chain of PI3K-alpha (P27986 whole entry partner, species assumed): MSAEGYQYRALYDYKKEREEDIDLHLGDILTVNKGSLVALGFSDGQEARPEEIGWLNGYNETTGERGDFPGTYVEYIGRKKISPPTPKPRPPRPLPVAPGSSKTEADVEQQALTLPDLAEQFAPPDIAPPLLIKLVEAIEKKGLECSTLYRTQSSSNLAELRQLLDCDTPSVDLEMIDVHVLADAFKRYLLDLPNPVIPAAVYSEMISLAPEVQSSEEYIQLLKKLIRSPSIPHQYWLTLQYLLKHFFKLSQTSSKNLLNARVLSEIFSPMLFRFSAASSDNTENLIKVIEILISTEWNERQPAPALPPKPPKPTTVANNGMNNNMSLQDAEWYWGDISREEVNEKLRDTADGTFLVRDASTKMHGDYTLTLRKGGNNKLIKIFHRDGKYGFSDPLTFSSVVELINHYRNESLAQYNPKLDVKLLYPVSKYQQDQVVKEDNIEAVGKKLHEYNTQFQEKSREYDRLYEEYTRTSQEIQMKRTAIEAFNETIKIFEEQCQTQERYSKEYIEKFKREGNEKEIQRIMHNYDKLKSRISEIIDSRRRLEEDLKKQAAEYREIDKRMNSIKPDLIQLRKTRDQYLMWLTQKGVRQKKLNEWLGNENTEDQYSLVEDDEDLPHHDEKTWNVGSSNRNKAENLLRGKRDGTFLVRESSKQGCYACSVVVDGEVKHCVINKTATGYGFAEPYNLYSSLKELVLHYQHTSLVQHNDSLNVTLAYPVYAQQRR

IC50 (human TOR) [nM]	IC50 (PI3K-gamma) [nM]	IC50 (PI3K-alpha) [nM]	SMILES
3500	1080	1650	O=C1/C(=C/c2c[nH]c3cccc(-c4ccc(F)cc4)c23)Oc2cc(O)cc(O)c21 [Example 363, (2Z)-2-{[4-(4-fluorophenyl)-1H-indol-3-yl]methylene}-4,6-dihydroxy-1-benzofuran-3(2H)-one]
123	1280	698	Cn1cc(/C=C2\Oc3cc(O)cc(O)c3C2=O)c2c(-c3ccc(F)cc3)cccc21 [Example 364, (2Z)-2-{[4-(4-Fluorophenyl)-1-methyl-1H-indol-3-yl]methylene}-4,6-dihydroxy-1-benzofuran-3(2H)-one]
104	1960	437	Cn1cc(/C=C2\Oc3cc(O)cc(O)c3C2=O)c2c(-c3cccc(F)c3)cccc21 [Example 365, (2Z)-2-{[4-(3-Fluorophenyl)-1-methyl-1H-indol-3-yl]methylene}-4,6-dihydroxy-1-benzofuran-3(2H)-one]
44.5	4570	1000	Cn1cc(/C=C2\Oc3cc(O)cc(O)c3C2=O)c2c(-c3ccc(C#N)cc3)cccc21 [Example 368, 4-{3-[(Z)-(4,6-Dihydroxy-3-oxo-1-benzofuran-2(3H)-ylidene)methyl]-1-methyl-1H-indol-4-yl}benzonitrile]
14	3000	1070	Cn1cc(/C=C2\Oc3cc(O)cc(O)c3C2=O)c2c(-c3ccc(N)cc3)cccc21 [Example 370, (2Z)-2-{[4-(4-Aminophenyl)-1-methyl-1H-indol-3-yl]methylene}-4,6-dihydroxy-1-benzofuran-3(2H)-one]
26	3000	738	CC(=O)c1ccc(-c2cccc3c2c(/C=C2\Oc4cc(O)cc(O)c4C2=O)cn3C)cc1 [Example 372, (2Z)-2-{[4-(4-Acetylphenyl)-1-methyl-1H-indol-3-yl]methylene}-4,6-dihydroxy-1-benzofuran-3(2H)-one]
300	> 10000	4770	Cn1cc(/C=C2\Oc3cc(O)cc(O)c3C2=O)c2c(-c3ccncc3)cccc21 [Example 373, (2Z)-4,6-Dihydroxy-2-[(1-methyl-4-pyridin-4-yl-1H-indol-3-yl)methylene]-1-benzofuran-3(2H)-one]
7	4070	496	Cn1cc(/C=C2\Oc3cc(O)cc(O)c3C2=O)c2c(-c3ccc(C(N)=O)cc3)cccc21 [Example 377, 4-{3-[(Z)-(4,6-Dihydroxy-3-oxo-1-benzofuran-2(3H)-ylidene)methyl]-1-methyl-1H-indol-4-yl}benzamide]
29	1090	562	Cn1cc(/C=C2\Oc3cc(O)cc(O)c3C2=O)c2c(-c3ccc(O)cc3)cccc21 [Example 379, (2Z)-4,6-Dihydroxy-2-{[4-(4-hydroxyphenyl)-1-methyl-1H-indol-3-yl]methylene}-1-benzofuran-3(2H)-one]
180	3950	2740	CC(C)Oc1ccc(-c2cccc3c2c(/C=C2\Oc4cc(O)cc(O)c4C2=O)cn3C)cc1 [Example 381, (2Z)-4,6-dihydroxy-2-{[4-(4-isopropoxyphenyl)-1-methyl-1H-indol-3-yl]methylene}-1-benzofuran-3(2H)-one]
535	4680	2920	CCOC(=O)c1ccc(-c2cccc3c2c(/C=C2\Oc4cc(O)cc(O)c4C2=O)cn3C)cc1 [Example 382, Ethyl 4-{3-[(Z)-(4,6-Dihydroxy-3-oxo-1-benzofuran-2(3H)-ylidene)methyl]-1-methyl-1H-indol-4-yl}benzoate]
12.3	2250	750	CC(=O)Nc1ccc(-c2cccc3c2c(/C=C2\Oc4cc(O)cc(O)c4C2=O)cn3C)cc1 [Example 383, N-(4-{3-[(Z)-(4,6-Dihydroxy-3-oxo-1-benzofuran-2(3H)-ylidene)methyl]-1-methyl-1H-indol-4-yl}phenyl)acetamide]
18	7630	2790	CN(C)c1ccc(-c2cccc3c2c(/C=C2\Oc4cc(O)cc(O)c4C2=O)cn3C)cc1 [Example 385, (2Z)-2-({4-[4-(Dimethylamino)phenyl]-1-methyl-1H-indol-3-yl}methylene)-4,6-dihydroxy-1-benzofuran-3(2H)-one]
11.5	9860	1870	CNc1ccc(-c2cccc3c2c(/C=C2\Oc4cc(O)cc(O)c4C2=O)cn3C)cc1 [Example 389, (2Z)-4,6-Dihydroxy-2-({1-methyl-4-[4-(methylamino)phenyl]-1H-indol-3-yl}methylene)-1-benzofuran-3(2H)-one]

The remaining lines, values behind:

SMILES	IC50 (human TOR) [nM]	IC50 (PI3K-gamma) [nM]	IC50 (PI3K-alpha) [nM]
COc1ccc2c(c1)c(/C=C1\Oc3c(ccc(O)c3C)C1=O)c(C)n2CCN1CCN(C)CC1 [Example 347, (2Z)-6-Hydroxy-2-({5-methoxy-2-methyl-1-[2-(4-methylpiperazin-1-yl)ethyl]-1H-indol-3-yl}methylene)-7-methyl-1-benzofuran-3(2H)-one]	> 4000	8670	408
COc1ccc2c(c1)c(/C=C1\Oc3cc(O)c(Br)cc3C1=O)c(C)n2CCCN(C)C [Example 350, (2Z)-5-Bromo-2-({1-[3-(dimethylamino)propyl]-5-methoxy-2-methyl-1H-indol-3-yl}methylene)-6-hydroxy-1-benzofuran-3(2H)-one]	> 20000	6870	114
COc1ccc2c(c1)c(/C=C1\Oc3cc(O)c(F)cc3C1=O)c(C)n2CCCN(C)C [Example 352, (2Z)-2-({1-[3-(Dimethylamino)propyl]-5-methoxy-2-methyl-1H-indol-3-yl}methylene)-5-fluoro-6-hydroxy-1-benzofuran-3(2H)-one]	> 800	3930	116
COc1ccc2c(c1)c(/C=C1\Oc3c(ccc(O)c3Cl)C1=O)c(C)n2CCCN(C)C [Example 361, (2Z)-7-Chloro-2-({1-[3-(dimethylamino)propyl]-5-methoxy-2-methyl-1H-indol-3-yl}methylene)-6-hydroxy-1-benzofuran-3(2H)-one]	> 800	3440	306
Cn1cc(/C=C2\Oc3cc(O)cc(O)c3C2=O)c2c(-c3ccccc3F)cccc21 [Example 366, (2Z)-2-{[4-(2-Fluorophenyl)-1-methyl-1H-indol-3-yl]methylene}-4,6-dihydroxy-1-benzofuran-3(2H)-one]	75.5	3930	1090
Cn1cc(/C=C2\Oc3cc(O)cc(O)c3C2=O)c2c(-c3cccc(C#N)c3)cccc21 [Example 367, 3-{3-[(Z)-(4,6-Dihydroxy-3-oxo-1-benzofuran-2(3H)-ylidene)methyl]-1-methyl-1H-indol-4-yl}benzonitrile]	500	5420	1440
COc1ccc(-c2cccc3[nH]cc(/C=C4\Oc5cc(O)cc(O)c5C4=O)c23)cc1 [Example 371, (2Z)-4,6-dihydroxy-2-{[4-(4-methoxyphenyl)-1H-indol-3-yl]methylene}benzofuran-3(2H)-one]	730	763	1010
Cn1cc(/C=C2\Oc3cc(O)cc(O)c3C2=O)c2c(-c3ccsc3)cccc21 [Example 374, (2Z)-4,6-Dihydroxy-2-{[1-methyl-4-(3-thienyl)-1H-indol-3-yl]methylene}-1-benzofuran-3(2H)-one]	110	4200	2610
Cn1cc(/C=C2\Oc3cc(O)cc(O)c3C2=O)c2c(-c3cccnc3)cccc21 [Example 375, (2Z)-4,6-Dihydroxy-2-[(1-methyl-4-pyridin-3-yl-1H-indol-3-yl)methylene]-1-benzofuran-3(2H)-one]	28	9500	2810
Cn1cc(/C=C2\Oc3cc(O)cc(O)c3C2=O)c2c(-c3ccoc3)cccc21 [Example 378, (2Z)-2-{[4-(3-Furyl)-1-methyl-1H-indol-3-yl]methylene}-4,6-dihydroxy-1-benzofuran-3(2H)-one]	107	3400	971
Cn1cc(/C=C2\Oc3cc(O)cc(O)c3C2=O)c2c(-c3ccc(N)nc3)cccc21 [Example 380, (2Z)-2-{[4-(6-Aminopyridin-3-yl)-1-methyl-1H-indol-3-yl]methylene}-4,6-dihydroxy-1-benzofuran-3(2H)-one]	89	3260	432
COc1ccc2c(c1)O/C(=C\c1c[nH]c3ccc(OC)cc13)C2=O [Example 384, (2Z)-6-Methoxy-2-[(5-methoxy-1H-indol-3-yl)methylene]-1-benzofuran-3(2H)-one]	> 20000	2450	> 10000
Cn1cc(/C=C2\Oc3cc(O)cc(O)c3C2=O)c2c(-c3ccc(N4CCOCC4)nc3)cccc21 [Example 386, (2Z)-4,6-Dihydroxy-2-{[1-methyl-4-(6-morpholin-4-ylpyridin-3-yl)-1H-indol-3-yl]methylene}-1-benzofuran-3(2H)-one]	69.5	5780	1920
CN(C)CCCNC(=O)c1ccc(-c2cccc3c2c(/C=C2\Oc4cc(O)cc(O)c4C2=O)cn3C)cc1 [Example 387, 4-{3-[(Z)-(4,6-Dihydroxy-3-oxo-1-benzofuran-2(3H)-ylidene)methyl]-1-methyl-1H-indol-4-yl}-N-[3-(dimethylamino)propyl]benzamide]	340	4590	3520
CC(=O)Nc1cccc(-c2cccc3c2c(/C=C2\Oc4cc(O)cc(O)c4C2=O)cn3C)c1 [Example 388, N-(3-{3-[(Z)-(4,6-Dihydroxy-3-oxo-1-benzofuran-2(3H)-ylidene)methyl]-1-methyl-1H-indol-4-yl}phenyl)acetamide]	200	3280	1350
